The text below walks through data of PubChem BioAssay (NCI).

Among the test systems are SK-MEL-2 melanoma; UO-31 renal; SK-MEL-28 melanoma; U251 CNS; SNB-19 CNS; OVCAR-5 ovarian; KM12 colon; NCI-H23 lung; SR leukemia; MALME-3M melanoma.
Assay in all cases: growth of human tumour cells (NCI), 48 h

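Cells were grown in 96-well plates and exposed to each compound for 48 hours at five concentrations; endpoints were interpolated linearly between bracketing concentrations, or set to the highest concentration if not reached. At the GI50, growth is halved. Definition used: TGI = concentration required for complete inhibition of growth.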

`CCOC(=O)/C(=C/c1cccc(OC)c1)N(CC)CC`: the TGI in the experiment with SK-MEL-2 melanoma, in the experiment with UO-31 renal, in the experiment with SK-MEL-28 melanoma, with U251 CNS, with SNB-19 CNS and in the experiment with OVCAR-5 ovarian was over 100 µM in each case. The TGI with KM12 colon, with NCI-H23 lung and in the experiment on SR leukemia was over 100 µM each time.

Turning to `Cn1c(/C(C#N)=C/c2ccc3ccccc3c2)cc2ccccc21`, the GI50 in the experiment on SK-MEL-2 melanoma is 6.28 µM; with UO-31 renal it was 0.157 µM; with SK-MEL-28 melanoma, 16.6 µM; with U251 CNS, 0.249 µM; with SNB-19 CNS, 0.256 µM; in the experiment on OVCAR-5 ovarian, 0.411 µM. The GI50 with KM12 colon was 0.114 µM; in the experiment with NCI-H23 lung it was 0.392 µM; in the experiment on SR leukemia, 0.114 µM. Also, the TGI with SK-MEL-2 melanoma, in the experiment on UO-31 renal, in the experiment with SK-MEL-28 melanoma, in the experiment on U251 CNS, in the experiment with SNB-19 CNS and in the experiment with OVCAR-5 ovarian was over 100 µM in each case. Further, the TGI with KM12 colon, in the experiment with NCI-H23 lung and in the experiment with SR leukemia was over 100 µM throughout.

For the molecule `C=CCO/N=C/c1cc(NC(=S)c2ccoc2C)ccc1Cl`, the TGI was 28 µM with SK-MEL-2 melanoma; 19.4 µM in the experiment with UO-31 renal; over 100 µM with SK-MEL-28 melanoma; 60.6 µM in the experiment with U251 CNS; 21.2 µM with SNB-19 CNS; 31.3 µM in the experiment on MALME-3M melanoma. Further, the TGI in the experiment on OVCAR-5 ovarian is 33.8 µM; in the experiment with KM12 colon, 25.5 µM; with NCI-H23 lung, 26.7 µM; in the experiment with SR leukemia, 30.9 µM.

Consider `CCC(=C(c1ccc(OCCCN(C)C)cc1)c1ccc(OCCCN(C)C)cc1)c1ccc(Cl)cc1`, for which the GI50 in the experiment with SK-MEL-2 melanoma is 2.63 µM; with UO-31 renal, 0.269 µM; with SK-MEL-28 melanoma, 0.324 µM; in the experiment on U251 CNS, 0.419 µM; in the experiment with SNB-19 CNS it was 0.921 µM; in the experiment with MALME-3M melanoma it was 0.36 µM. Besides, the GI50 is 2.48 µM in the experiment on OVCAR-5 ovarian, 1.26 µM in the experiment with KM12 colon, 2.5 µM in the experiment with NCI-H23 lung and 0.288 µM with SR leukemia. For the same molecule, the TGI with SK-MEL-2 melanoma was 5.37 µM; in the experiment on UO-31 renal, 0.58 µM; with SK-MEL-28 melanoma, 0.652 µM; with U251 CNS, 1.1 µM; in the experiment on SNB-19 CNS, 3.05 µM; in the experiment on MALME-3M melanoma, 0.973 µM. In addition, the TGI in the experiment on OVCAR-5 ovarian was 4.8 µM; in the experiment on KM12 colon it was 3.43 µM; in the experiment with NCI-H23 lung, 4.98 µM; with SR leukemia, 0.716 µM.

Take `CCCCCCCCCCCCCCCCCCNC(=O)[C@H]1CSC(c2cccs2)N1` (stereo partly specified): the GI50 in the experiment on SK-MEL-2 melanoma was 0.957 µM; in the experiment with UO-31 renal, 10.3 µM; in the experiment with SK-MEL-28 melanoma, 0.725 µM; with U251 CNS it was 0.929 µM; with SNB-19 CNS, 3.6 µM; with MALME-3M melanoma it was 0.988 µM. For the same molecule, the GI50 with OVCAR-5 ovarian was 1.17 µM; in the experiment on KM12 colon, 0.977 µM; with NCI-H23 lung it was 1.8 µM; with SR leukemia, 0.94 µM. Further, the TGI is 1.79 µM in the experiment on SK-MEL-2 melanoma; over 50 µM in the experiment with UO-31 renal; 1.43 µM in the experiment on SK-MEL-28 melanoma; 1.74 µM in the experiment with U251 CNS; over 50 µM in the experiment on SNB-19 CNS; 2.01 µM with MALME-3M melanoma. Moreover, the TGI worked out at 2.57 µM in the experiment with OVCAR-5 ovarian, 1.98 µM in the experiment on KM12 colon, 17.7 µM in the experiment on NCI-H23 lung and 2.62 µM in the experiment on SR leukemia.

As for `c1ccc(Cn2cnc3ccc(-c4nc(-c5ccc6c(c5)ncn6C5CCCCC5)cn5ccnc45)cc32)cc1`, the GI50 in the experiment on SK-MEL-2 melanoma is 2.02 µM; in the experiment on UO-31 renal, 1.72 µM; in the experiment on SNB-19 CNS, 4.54 µM; with KM12 colon it was 2.08 µM; in the experiment on NCI-H23 lung, 1.88 µM; in the experiment with SR leukemia, 1.68 µM. The TGI in the experiment on SK-MEL-2 melanoma was 4.85 µM; in the experiment with UO-31 renal it was 4.55 µM; with SNB-19 CNS, over 100 µM; with KM12 colon it was 4.93 µM; with NCI-H23 lung it was 4.49 µM; in the experiment on SR leukemia it was over 100 µM.

`COCCOCCOCc1n(Cc2ccc3ccccc3n2)c2ccccc2[n+]1Cc1ccc2ccccc2c1`: the GI50 with SK-MEL-2 melanoma was 0.376 µM; in the experiment on UO-31 renal, 2.29 µM; in the experiment on SK-MEL-28 melanoma, 0.484 µM; in the experiment on U251 CNS it was 0.328 µM; with SNB-19 CNS it was 0.441 µM; in the experiment on MALME-3M melanoma, 0.275 µM. Moreover, the GI50 in the experiment with OVCAR-5 ovarian was 0.557 µM; in the experiment with KM12 colon, 0.388 µM; with NCI-H23 lung, 0.386 µM; in the experiment on SR leukemia, 0.273 µM. The TGI with SK-MEL-2 melanoma worked out at 1.56 µM; in the experiment on UO-31 renal it was 11.2 µM; with SK-MEL-28 melanoma it was 1.88 µM; with U251 CNS, 1.26 µM; in the experiment on SNB-19 CNS, 1.62 µM; in the experiment with MALME-3M melanoma it was 0.9 µM. The TGI in the experiment with OVCAR-5 ovarian is 7.43 µM; in the experiment on KM12 colon, 1.63 µM; in the experiment with NCI-H23 lung, 10.3 µM; with SR leukemia it was 1.07 µM.

On to `C=C(CN1CCc2ccccc2C1)c1ccc(C(=O)Nc2ccccc2N)cc1`, for which the GI50 in the experiment on SK-MEL-2 melanoma is 3.16 µM; with UO-31 renal it was 2.87 µM; in the experiment with SK-MEL-28 melanoma, 0.389 µM; in the experiment on U251 CNS it was 0.911 µM; with SNB-19 CNS, 2.39 µM; with OVCAR-5 ovarian, 2.64 µM. In addition, the GI50 in the experiment on KM12 colon is 1.26 µM; with NCI-H23 lung it was 0.677 µM; in the experiment with SR leukemia it was 0.484 µM. Besides, the TGI with SK-MEL-2 melanoma is 19.1 µM; in the experiment with UO-31 renal, 8.8 µM; in the experiment on SK-MEL-28 melanoma it was 6.53 µM; in the experiment on U251 CNS it was 4.8 µM; in the experiment on SNB-19 CNS it was over 50 µM; in the experiment with OVCAR-5 ovarian it was over 20.2 µM. In addition, the TGI in the experiment with KM12 colon is 4.54 µM; in the experiment on SR leukemia it was over 50 µM.

For the molecule `COc1ccc(Nc2nc3ccccc3nc2-c2cccs2)cc1`, the TGI with SK-MEL-2 melanoma, in the experiment with UO-31 renal, with SK-MEL-28 melanoma, in the experiment on U251 CNS, with SNB-19 CNS and in the experiment on MALME-3M melanoma was over 100 µM in each case. For the same molecule, the TGI in the experiment on OVCAR-5 ovarian, with KM12 colon, with NCI-H23 lung and with SR leukemia was over 100 µM in each case.
